Source: article PMC7000209, “Novel small molecule modulators of quorum sensing in avian pathogenic Escherichia coli (APEC)” (Virulence, 2018)

What was measured:
[1] = test system: AI-2 activity of O109; assay: AI-2 bioluminescence indicator assay, APEC O109; type: cell-based, avian pathogenic E. coli (APEC) O109; conditions: Escherichia coli, read-out: % Inhibtion of AI-2 activity, serotype O109, bioluminescence vs DMSO treated control
Protocol: (§1) Overnight culture of APEC O78 prepared in LB broth was adjusted to an optical density (OD600) of 0.05 (7 × 10^7 CFU/mL) in fresh LB broth. One hundred micro-liters of the culture was transferred to a 96-well plate and 1µL (100 μM final concentration) of the compound was added to each well using a pin tool. Chloramphenicol (40 μg/mL) or kanamycin (30 μg/mL) and 1μL of 100% DMSO were included as controls in each plate. Plates were incubated at 37 °C for 10 h with shaking in a Sunrise^TM Tecan plate reader (Tecan Group Ltd. San Jose, CA, USA) and the growth was kinetically monitored every 30 min by measuring the OD at 600 nm.
(§2) The AI-2 bioluminescence assay was performed as described previously. Briefly, APEC O78 cultures grown in the presence of SMs (see above) were centrifuged at 5000 × g for 10 min, and cell-free culture supernatants were prepared by using a 0.22 µm filter 96 well plate (Millipore). The bioluminescence reporter V. harveyi BB170 (AI-1^+ and AI-2^-) was grown overnight in AB medium at 30 °C aerobically with shaking. The overnight culture was diluted to 1:5000 in fresh AB medium and incubated at 30 °C for 3 h. Following incubation, 180 μL of the V. harveyi BB170 culture was distributed into each well of a 96-well plate and mixed with 20 µL of the cell free culture supernatant, the plate was then incubated at 30 °C for 2.5 h in the dark and the bioluminescence was measured using in vivo imaging system (IVIS Lumina Series III, PerkinElmer, USA). […] Cell-free culture supernatants collected from overnight cultures of V. harveyi BB120 (AI-1^+andAI-2^+) and E. coli DH5α (a strain lacks AI-2) were used as controls. Bioluminescence of SMs treated culture supernatants were compared to DMSO treated control. The Z-score was calculated to evaluate the quality of the bioluminescence screening. Four independent experiments were conducted for the 69 compounds that inhibited ≥ 75% of the AI-2 mediated bioluminescence and the average inhibition percentage was calculated.
(§3) The selected compounds were also tested for inhibition of AI-2 production in other APEC serotypes such as O1, O2, O8, O15, O18, O35, O109, and O115 that are commonly implicated in colibacillosis using the same procedure described above.

[2] = test system: AI-2 activity of O18; assay: AI-2 bioluminescence indicator assay, APEC O18; type: cell-based, avian pathogenic E. coli (APEC) O18; conditions: Escherichia coli, read-out: % Inhibtion of AI-2 activity, serotype O18, bioluminescence vs DMSO treated control
Protocol: as §1, §2, §3

[3] = test system: AI-2 activity of O8; assay: AI-2 bioluminescence indicator assay, APEC O8; type: cell-based, avian pathogenic E. coli (APEC) O8; conditions: Escherichia coli, read-out: % Inhibtion of AI-2 activity, serotype O8, bioluminescence vs DMSO treated control
Protocol: as §1, §2, §3

[4] = test system: AI-2 activity of APEC O1; assay: AI-2 bioluminescence indicator assay, APEC O1; type: cell-based, avian pathogenic E. coli (APEC) O1; conditions: Escherichia coli, read-out: % Inhibtion of AI-2 activity, serotype O1, bioluminescence vs DMSO treated control
Protocol: as §1, §2, §3

[5] = test system: APEC O2 in HD-11 cells; assay: Intracellular survival assay, APEC O2 in HD-11 cells; type: cell-based, avian pathogenic E. coli (APEC) O2; conditions: MOI 100, 100 µM, 6 h; for reduction of intracellular survival of APEC O2: vs DMSO treated control
Protocol: The effect of the selected AI-2 inhibitors on the survival of APEC in macrophage cells was tested as described before. Briefly, HD-11 cells was grown as described above and infected with 1 × 10^7 CFU (MOI = 100) of mid-log phase APEC strains (O78, O1 and O2) at 37 °C for 1 h. Cells were washed with PBS and treated with gentamicin (150 μg/mL) for 1 h to kill the extracellular bacteria. The cells were then washed and incubated with 100 µM of each compound in media containing 10 μg/mL of gentamicin at 37 °C for 6 h. Following treatment, cells were washed, lysed with 0.1% Triton X-100 for 5 min, ten-fold serially diluted in PBS and plated on LB agar plates to determine CFUs. Cells treated with chloramphenicol (40 μg/mL) and 1 μL of 100% DMSO were used as controls. The experiment was conducted two times with four replicates in each experiment. Intracellular survival was expressed as the log change of APEC CFUs in the AI-2 inhibitors treated cells.

[6] = test system: G. mellonella larvae infected with APEC O78; assay: Wax moth (G. mellonella) larva infection model; type: in vivo, Galleria mellonella; conditions: for clearance of APEC in surviving larvae / reduction of bacterial load in surviving larvae: live larvae at 72 h; for reduction of bacterial load in surviving larvae: in comparison to dead larvae; for increase in larval survival: 12.5 µg/larva (50 mg/kg), APEC O78 4.25 × 10^4 CFU, 72 h, vs DMSO treated controls
Protocol: G. mellonella caterpillars (larvae) in the final instar stage (fifth instar) were obtained from Vanderhorst, Inc. (St. Mary’s, Ohio, USA), stored in wood shavings in a petri dish in the dark and used within 7 days of receiving. Larvae with 15–25 mm length, 250–350 mg weight, having a creamy color with minimal speckling and no grey markings were used in this study. The infection was performed as described previously. For the inoculation, AI-2 inhibitors were diluted in a buffer mix (30% DMSO plus 10 mM MgSO4) as described previously and each larva (n = 10) was inoculated with 8.5 µL (50 mg/kg; 12.5 µg/larva) of the AI-2 inhibitors into the hemocoel via the last left proleg using PB600-1 repeating dispenser (Hamilton) attached to insulin syringe (31 gauge, 8 mm needle length; ReliOn). Larvae were placed inside sterile petri dishes and incubated for 2 h in the dark at 37 °C. Then, larvae were infected with 8.5 µL of (4.25 × 10^4 CFU) of Rif^R APEC O78 in 10 mM MgSO4 on the right hind proleg. Rif^R APEC O78 was generated as described above by plating APEC on LB agar plate containing 50 µg/ mL rifampicin for specific monitoring of APEC population inside the larvae. […] Infection dose of Rif^R APEC O78 to larvae was identified based on preliminary study (Figure S1). Larvae were incubated at 37°C in the dark and the survival was monitored daily for 72 h. Infected larvae treated with buffer mix and 75 mg/kg of chloramphenicol were used as controls.
For the quantification of APEC inside the larvae, dead and live larvae were surface sterilized with 70% ethanol, homogenized in PBS. The suspension was tenfold serially diluted and plated on MacConkey agar plates supplemented with 50 µg/mL of rifampicin. The plates were then incubated overnight at 37 °C and APEC load was enumerated. Two independent experiments were conducted using larvae (n = 10) obtained in different batches.

[7] = test system: AI-2 activity of O15; assay: AI-2 bioluminescence indicator assay, APEC O15; type: cell-based, avian pathogenic E. coli (APEC) O15; conditions: Escherichia coli, read-out: % Inhibtion of AI-2 activity, serotype O15, bioluminescence vs DMSO treated control
Protocol: as §1, §2, §3

Row | SMILES | inhibition at 100 µM [1] [%] | inhibition at 100 µM [2] [%] | inhibition at 100 µM [3] [%] | inhibition at 100 µM [4] [%] | clearance of intracellular APEC O2 [5] [%] | reduction of intracellular survival of APEC O2 [5] | larval death at 48 h post treatment (in words) [6] | inhibition at 100 µM [7] [%] | clearance of APEC in surviving larvae [6] [%] | reduction of bacterial load in surviving larvae [6] | increase in larval survival [6] [%] | larval death at 72 h post treatment (in words) [6]
1 | O=[N+]([O-])c1cccc(S(=O)(=O)Nc2ccc(Br)cc2)c1 [C6, N-(4-bromophenyl)-3-nit robenzenesulfonamide] | 60 | ≥ 75 | ≥ 75 | ≥ 75 | 100 | ~ 3.3 logs | no larval death |  |  |  |  | 
2 | NC(=O)c1ccccc1Nc1cccc(C(F)(F)F)c1 [C3, 2-{[3-(trifluoromethyl)phenyl]amino}benzamide] | 0 | 8 | 39 | 65 |  |  |  | 0 |  |  |  | 
3 | Cc1ccc(CN2CCN(CCCc3ccccc3)CC2)cc1 [C5, 1-(4-methylbenzyl)-4-(3-phenylpropyl)piperazine] | 69 | 61 | 18 | 46 | 100 | ~ 3.3 logs | no larval death | 45 |  |  |  | 
4 | CCc1ccccc1Nc1nc(-c2c(C)nc3ccccn23)cs1 [C8, N-(2-ethylphenyl)-4-(2-methylimidazo[1,2-a]pyridin-3-yl)-1,3-thiazol-2-amine] | ≥ 75 | 54 | 18 | 41 |  | up to 0.8 logs | no larval death | 25 | 100 | up to 5 logs |  | 
5 | Cc1ccccc1N1CCN(C2CCCN(C(=O)c3ccc(F)c(Cl)c3)C2)CC1 (stereo not drawn) [C2, 1-[1-(3-chloro-4-fluorobenzoyl)-3-piperidinyl]-4-(2-methylphenyl)piperazine] | 57 | 43 | 20 | 64 |  |  | no larval death | 27 | 100 | up to 5 logs | 30 | 
6 | CS/C(N)=N/N=C/c1cc(C)ccc1O [C4, methyl N'-(2-hydroxy-5-methylbenzylidene)h ydrazonothiocarbamate] | 67 | 54 | 0 | 63 |  | up to 0.8 logs |  | 46 |  |  |  | 
7 | O=C(CCN1CCN(c2ccccc2F)CC1)Nc1ccc(Br)cc1 [C7, N-(4-bromophenyl)-3-[4-(2-fluorophenyl)-1-piperazinyl]propanamide] | 67 | 48 | 2 | 47 |  | up to 0.8 logs |  | 36 |  |  |  | no larval death
8 | COCCN1CCC(CN(Cc2ccncc2)Cc2ccccc2Cl)CC1 [C1, (2-chlorobenzyl){[1-(2-methoxyethyl)-4-piperidinyl]methyl}(4-pyridinylmethyl)amine] | 65 | 37 | 20 | ≥ 75 |  |  |  | 13 |  |  | 23 | no larval death
9 | OCCC1CN(C2CCN(c3ccccc3)CC2)CCN1CCCc1ccccc1 (stereo not drawn) [C10, 2-[4-(1-phenyl-4-piperidinyl)-1-(3-phenylpropyl)-2-piperazinyl]ethanol] | 57 | 35 | 0 | 64 | 100 | ~ 3.3 logs |  | 22 |  |  |  | 
10 | Fc1ccc(CN2CCCN(Cc3nc(-c4ccc(C(F)(F)F)cc4)no3)CC2)cc1 [C9, 1-(4-fluorobenzyl)-4-({3-[4-(trifluoromethyl)phenyl]-1,2,4-oxadiazol-5-yl}methyl)-1,4-diazepane] | 66 | 14 | 20 | 19 | 100 | ~ 3.3 logs |  | 0 |  |  |  | 
